Reference: PubChem BioAssay (NCI)
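Test compounds were applied to cells in 96-well plates for 48 hours at 5 doses. TGI denotes the concentration required for complete inhibition of growth.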

Experiments:
Test in all cases: DTP human tumour cell line panel, 48 h
HCC-2998 colon = system: HCC-2998 colon
NCI-H226 lung = system: NCI-H226 lung
COLO 205 colon = system: COLO 205 colon
BT-549 breast = system: BT-549 breast
UACC-257 melanoma = system: UACC-257 melanoma
HL-60(TB) leukemia = system: HL-60(TB) leukemia
HS 578T breast = system: HS 578T breast
MDA-MB-435 = system: MDA-MB-435
SF-295 CNS = system: SF-295 CNS
TK-10 renal = system: TK-10 renal
M14 melanoma = system: M14 melanoma
NCI-H460 lung = system: NCI-H460 lung
UACC-62 melanoma = system: UACC-62 melanoma
HT29 colon = system: HT29 colon
OVCAR-5 ovarian = system: OVCAR-5 ovarian
SN12C renal = system: SN12C renal
CAKI-1 renal = system: CAKI-1 renal
A498 renal = system: A498 renal
MALME-3M melanoma = system: MALME-3M melanoma
DU-145 prostate = system: DU-145 prostate
HOP-92 NSCLC = system: HOP-92 NSCLC
OVCAR-4 ovarian = system: OVCAR-4 ovarian
SW-620 colon = system: SW-620 colon
MDA-N = system: MDA-N
SNB-19 CNS = system: SNB-19 CNS
MCF7 breast = system: MCF7 breast
IGROV1 ovarian = system: IGROV1 ovarian
OVCAR-3 ovarian = system: OVCAR-3 ovarian
NCI-H23 lung = system: NCI-H23 lung
T-47D breast = system: T-47D breast
PC-3 prostate = system: PC-3 prostate
HCT-116 colon = system: HCT-116 colon
786-0 renal = system: 786-0 renal
NCI/ADR-RES ovarian = system: NCI/ADR-RES ovarian
ACHN renal = system: ACHN renal
SF-539 CNS = system: SF-539 CNS
SK-MEL-2 melanoma = system: SK-MEL-2 melanoma
SNB-75 CNS = system: SNB-75 CNS
HCT-15 colon = system: HCT-15 colon
SK-OV-3 ovarian = system: SK-OV-3 ovarian
RXF 393 renal = system: RXF 393 renal
SK-MEL-28 melanoma = system: SK-MEL-28 melanoma
RPMI-8226 leukemia = system: RPMI-8226 leukemia
SF-268 CNS = system: SF-268 CNS
SK-MEL-5 melanoma = system: SK-MEL-5 melanoma
MDA-MB-231 breast = system: MDA-MB-231 breast
HOP-62 NSCLC = system: HOP-62 NSCLC
OVCAR-8 ovarian = system: OVCAR-8 ovarian
U251 CNS = system: U251 CNS
KM12 colon = system: KM12 colon
NCI-H522 lung = system: NCI-H522 lung
CCRF-CEM leukemia = system: CCRF-CEM leukemia
EKVX NSCLC = system: EKVX NSCLC
A549 NSCLC = system: A549 NSCLC
K-562 leukemia = system: K-562 leukemia
UO-31 renal = system: UO-31 renal
MOLT-4 leukemia = system: MOLT-4 leukemia
LOX IMVI melanoma = system: LOX IMVI melanoma

N=c1c2c(=S)n(-c3ccccc3)c(=S)n(-c3ccccc3)c2nc(SCCCN2CCCCC2)n1-c1ccccc1
TGI (HCC-2998 colon): 2.82 µM | TGI (NCI-H226 lung): 6.84 µM | TGI (COLO 205 colon): 3.19 µM | TGI (BT-549 breast): 3.41 µM | TGI (UACC-257 melanoma): 3.31 µM | TGI (HL-60(TB) leukemia): 3.81 µM | TGI (HS 578T breast): > 100 µM | TGI (MDA-MB-435): 3.14 µM | TGI (SF-295 CNS): 12.6 µM | TGI (TK-10 renal): 3.08 µM | TGI (M14 melanoma): 3.1 µM | TGI (NCI-H460 lung): 4.3 µM | TGI (UACC-62 melanoma): 3.03 µM | TGI (HT29 colon): 4.32 µM | TGI (OVCAR-5 ovarian): 26.2 µM | TGI (SN12C renal): 3.28 µM | TGI (CAKI-1 renal): 3.15 µM | TGI (A498 renal): 7.11 µM | TGI (MALME-3M melanoma): 3.31 µM | TGI (DU-145 prostate): 3.03 µM | TGI (HOP-92 NSCLC): 3.28 µM | TGI (OVCAR-4 ovarian): 3.23 µM | TGI (SW-620 colon): 5.15 µM | TGI (MDA-N): 3.33 µM | TGI (SNB-19 CNS): 9.41 µM | TGI (MCF7 breast): 1.3 µM | TGI (IGROV1 ovarian): 3.09 µM | TGI (OVCAR-3 ovarian): 3.02 µM | TGI (NCI-H23 lung): 3.37 µM | TGI (T-47D breast): 5.78 µM | TGI (PC-3 prostate): 3.03 µM | TGI (HCT-116 colon): 3.1 µM | TGI (786-0 renal): 2.28 µM | TGI (NCI/ADR-RES ovarian): 8.97 µM | TGI (ACHN renal): 3.08 µM | TGI (SF-539 CNS): 16.7 µM | TGI (SK-MEL-2 melanoma): 3.77 µM | TGI (SNB-75 CNS): 3.28 µM | TGI (HCT-15 colon): 3.23 µM | TGI (SK-OV-3 ovarian): 5.34 µM | TGI (RXF 393 renal): 3.26 µM | TGI (SK-MEL-28 melanoma): 5.1 µM | TGI (RPMI-8226 leukemia): > 100 µM | TGI (SF-268 CNS): 3.55 µM | TGI (SK-MEL-5 melanoma): 3.63 µM | TGI (MDA-MB-231 breast): 3.05 µM | TGI (HOP-62 NSCLC): 3.38 µM | TGI (OVCAR-8 ovarian): 3.36 µM | TGI (U251 CNS): 3.12 µM | TGI (KM12 colon): 3.44 µM | TGI (NCI-H522 lung): 2.54 µM | TGI (CCRF-CEM leukemia): 1.41 µM | TGI (EKVX NSCLC): 3.47 µM | TGI (A549 NSCLC): 3.78 µM

CN1C(=O)C(O)CC1c1ccc(C(F)(F)F)cc1 (configuration not stated)
TGI (K-562 leukemia): > 100 µM | TGI (HCC-2998 colon): > 100 µM | TGI (NCI-H226 lung): > 100 µM | TGI (COLO 205 colon): > 100 µM | TGI (BT-549 breast): > 100 µM | TGI (UACC-257 melanoma): > 100 µM | TGI (UO-31 renal): > 100 µM | TGI (HL-60(TB) leukemia): > 100 µM | TGI (HS 578T breast): > 100 µM | TGI (MDA-MB-435): > 100 µM | TGI (SF-295 CNS): > 100 µM | TGI (TK-10 renal): > 100 µM | TGI (MOLT-4 leukemia): > 100 µM | TGI (M14 melanoma): > 100 µM | TGI (NCI-H460 lung): > 100 µM | TGI (UACC-62 melanoma): > 100 µM | TGI (HT29 colon): > 100 µM | TGI (OVCAR-5 ovarian): > 100 µM | TGI (SN12C renal): > 100 µM | TGI (CAKI-1 renal): > 100 µM | TGI (A498 renal): > 100 µM | TGI (MALME-3M melanoma): > 100 µM | TGI (DU-145 prostate): > 100 µM | TGI (HOP-92 NSCLC): > 100 µM | TGI (OVCAR-4 ovarian): > 100 µM | TGI (SW-620 colon): > 100 µM | TGI (MDA-N): > 100 µM | TGI (SNB-19 CNS): > 100 µM | TGI (LOX IMVI melanoma): > 100 µM | TGI (MCF7 breast): > 100 µM | TGI (IGROV1 ovarian): > 100 µM | TGI (OVCAR-3 ovarian): > 100 µM | TGI (NCI-H23 lung): > 100 µM | TGI (T-47D breast): > 100 µM | TGI (PC-3 prostate): > 100 µM | TGI (HCT-116 colon): > 100 µM | TGI (786-0 renal): > 100 µM | TGI (NCI/ADR-RES ovarian): > 100 µM | TGI (ACHN renal): > 100 µM | TGI (SF-539 CNS): > 100 µM | TGI (SK-MEL-2 melanoma): > 100 µM | TGI (SNB-75 CNS): > 100 µM | TGI (HCT-15 colon): > 100 µM | TGI (SK-OV-3 ovarian): > 100 µM | TGI (RXF 393 renal): > 100 µM | TGI (SK-MEL-28 melanoma): > 100 µM | TGI (RPMI-8226 leukemia): > 100 µM | TGI (SF-268 CNS): > 100 µM | TGI (SK-MEL-5 melanoma): > 100 µM | TGI (MDA-MB-231 breast): > 100 µM | TGI (HOP-62 NSCLC): > 100 µM | TGI (OVCAR-8 ovarian): > 100 µM | TGI (U251 CNS): > 100 µM | TGI (KM12 colon): > 100 µM | TGI (NCI-H522 lung): > 100 µM | TGI (CCRF-CEM leukemia): > 100 µM | TGI (EKVX NSCLC): > 100 µM | TGI (A549 NSCLC): > 100 µM
